Experimental data as given in patent US6703371B1, “Preparations for reducing oxygen consumption during physical efforts” (priority 1999, dated 2004).
Like-named read-outs stand apart in the source and are kept apart here.

Experiments:
[1] = Oxygen-sparing action during physical work, general findings in the description; assay type: in vivo; settings: result in words; for Oxygen demand after administration: even occasionally increased
test subject [2] = assay type: in vivo, human; settings: Homo sapiens, 10 min
test subject [3] = test: Bicycle ergometer test at 100 W: antagonism between inactive (1st dosage) and active (2nd dosage) substances (Example 1b); assay type: in vivo, human; settings: for Change in the oxygen consumption after 2nd dosage: relative to after 1st dosage; for Average heart rate after 1st dosage: 10-minute test at 100 W
Experimental: (§1) 13 to Mar. 6, 1999, with a subject in good physical condition under standard conditions. The subject was required each morning in the fasting state to perform successively (without interruption) at mechanical power output of 100 W, 125 W and 150 W, each lasting 10 minutes (total test duration 30 minutes each time). […] The heat production induced by mechanical exertion was calculated from the changes in the heart rate. An alternative possibility is also to determine it on the basis of the increase in humidity caused by the perspiration (the tests are carried out in a closed room) or reduction in weight (1 g of water=2.26 kJ). […] The values indicated in table la for the “average heart rate” are in each case averages over the 30-minute duration of the test; relative values for the oxygen consumption were established on the basis of the heart rates in a known manner, and the relative values indicated in Table 1a are based on the oxygen consumption on the first day (=100%); the values listed in the column “heat production” in Table 1a give the percentage deviation of the heat production, established on the basis of the perspiration, from the average from all the tests.
(§2) It is known that the oxygen uptake can be determined by measuring the heart rate as a function of the mechanical exertion. This ergometric method is based on establishing the oxygen transport volume through the action of the heart. Since the stroke volume is essentially constant irrespective of the intensity of the mechanical work, and the increased oxygen demand caused by the increase in work results in an increase in the heart rate, the quantity of the transported oxygen can be established by determining the additional heartbeats caused by the work. A 3-stage ergometer as recommended by the World Health Organization (WHO) is used in physiology research institutes and fitness clubs around the world.

test subject [4] = test: Bicycle ergometer test at 100 W: active ingredient, sucrose, further active ingredient, amino acid/vitamin product (Example 1c); assay type: in vivo, human; settings: for Average heart rate after 4th dos.: 4th dosage 100 mg of Na glutamate, 0.3 mg of folic acid, 5 μg of cyanocobalamin in 10 mg of gelatin; for Average heart rate after 2nd dos.: then 2nd dosage 2.5 g of sucrose
Experimental: as §1, §2

test subject [5] = test: as above; assay type: in vivo, human; settings: for Change in oxygen consumption after 2nd dos.: 2nd dosage 2.5 g of sucrose; for Change in oxygen consumption after 2nd dos. / Change in oxygen consumption after 4th dos. / Change in oxygen consumption after 3rd dos.: relative to preceding dosage; for Change in oxygen consumption after 4th dos.: 4th dosage Na glutamate/folic acid/cyanocobalamin/gelatin; for Average heart rate after 1st dos.: 10-minute test at 100 W
[6] = read-out: Change in the oxygen demand
[7] = read-out: Heat production (deviation from the average of all the tests)

CCOC(=O)n1ccn(C)c1=S [carbimazole]
Suitability for reducing the oxygen consumption during physical work [1]: suitable

CN1C(=O)CN=C(c2ccccc2F)c2cc([N+](=O)[O-])ccc21 [flunitrazepam]
change in vivo at 1 mg (test subject [2]; [6]): -39% | change in vivo at 1 mg (test subject [2]; [7]): -40% | Suitability for reducing the oxygen consumption during physical work [1]: suitable

CSc1ccc2c(c1)N(CCC1CCCCN1C)c1ccccc1S2 (stereo not shown) [thioridazine]
Change in the oxygen consumption after 2nd dosage (test subject [3]; 2nd dosage 1 mg, after 10 mg of imipramine, 100 W): −56% | Average heart rate after 2nd dosage (test subject [3]; 2nd dosage 1 mg, after 1st dosage of 10 mg of imipramine, 100 W): 81.5 per minute | Suitability for reducing the oxygen consumption during physical work [1]: suitable | Average heart rate after 4th dos. (test subject [4]; 1 mg series): 86.5 per minute | Average heart rate after 3rd dos. (test subject [4]; 3rd dosage further 1 mg of active ingredient after sucrose): 111.2 per minute | Average heart rate after 2nd dos. (test subject [4]; after 1 mg of active ingredient): 111.0 per minute | Change in oxygen consumption after 2nd dos. (test subject [5]; 1 mg series): +69% | Change in oxygen consumption after 4th dos. (test subject [5]; 1 mg series): −49% | Average heart rate after 1st dos. (test subject [5]; 1st dosage 1 mg as dilute aqueous solution): 76.3 per minute | Change in oxygen consumption after 3rd dos. (test subject [5]; 3rd dosage further 1 mg of active ingredient): 0%

CNC1=Nc2ccc(Cl)cc2C(c2ccccc2)=[N+]([O-])C1 [chlordiazepoxide]
Average heart rate after 1st dosage (test subject [3]; 1st dosage 5 mg in 20 ml of water): 126.4 per minute | change in vivo at 5 mg (test subject [3]; Homo sapiens, 1st dosage 5 mg, 100 W, read-out: Change in the oxygen consumption after 1st dosage): 29% | change in vivo at 1 mg (test subject [2]; [6]): 0% | change in vivo at 1 mg (test subject [2]; [7]): 14%

COc1ccc2c3c1O[C@H]1[C@@H](O)CC[C@H]4[C@@H](C2)N(C)CC[C@@]341 [dihydrocodeine]
Suitability for reducing the oxygen consumption during physical work [1]: suitable

O=C1CN=C(c2ccccn2)c2cc(Br)ccc2N1 [bromazepam]
Average heart rate after 1st dosage (test subject [3]; 1st dosage 3 mg in 20 ml of water): 129.3 per minute | change in vivo at 3 mg (test subject [3]; Homo sapiens, 1st dosage 3 mg, 100 W, read-out: Change in the oxygen consumption after 1st dosage): 23% | change in vivo at 1 mg (test subject [2]; [6]): 0% | change in vivo at 1 mg (test subject [2]; [7]): 6% | Oxygen demand after administration [1]: not reduced

CN(C)CCOC(C)(c1ccccc1)c1ccccn1 (stereo not shown) [doxylamine]
Oxygen demand after administration [1]: not reduced

CN(C)CCCN1c2ccccc2CCc2ccc(Cl)cc21 [clomipramine]
Average heart rate after 1st dosage (test subject [3]; 1st dosage 25 mg in 20 ml of water): 134.8 per minute | change in vivo at 25 mg (test subject [3]; Homo sapiens, 1st dosage 25 mg, 100 W, read-out: Change in the oxygen consumption after 1st dosage): 42% | Oxygen demand after administration [1]: not reduced

CN1CCC(=C2c3ccccc3C=Cc3ccccc32)CC1 [cyproheptadine]
Change in the oxygen consumption after 2nd dosage (test subject [3]; 2nd dosage 0.2 mg, after 5 mg of chlordiazepoxide, 100 W): −76% | Change in the oxygen consumption after 2nd dosage (test subject [3]; 2nd dosage 0.2 mg, after 10 mg of amitriptyline, 100 W): −63% | Average heart rate after 2nd dosage (test subject [3]; 2nd dosage 0.2 mg, after 1st dosage of 5 mg of chlordiazepoxide, 100 W): 88.5 per minute | Average heart rate after 2nd dosage (test subject [3]; 2nd dosage 0.2 mg, after 1st dosage of 10 mg of amitriptyline, 100 W): 87.6 per minute | Average heart rate after 4th dos. (test subject [4]; 0.2 mg series): 83.9 per minute | Average heart rate after 3rd dos. (test subject [4]; 3rd dosage further 0.2 mg of active ingredient after sucrose): 106.4 per minute | Average heart rate after 2nd dos. (test subject [4]; after 0.2 mg of active ingredient): 109.1 per minute | Change in oxygen consumption after 2nd dos. (test subject [5]; 0.2 mg series): +69% | Change in oxygen consumption after 4th dos. (test subject [5]; 0.2 mg series): −45% | Average heart rate after 1st dos. (test subject [5]; 1st dosage 0.2 mg as dilute aqueous solution): 74.7 per minute | Change in oxygen consumption after 3rd dos. (test subject [5]; 3rd dosage further 0.2 mg of active ingredient): −5%

COc1ccc2c(c1OC)C(=O)O[C@@H]2[C@H]1c2c(cc3c(c2OC)OCO3)CCN1C [noscapine]
Suitability for reducing the oxygen consumption during physical work [1]: suitable

CN1CCN(C(=O)OC2c3nccnc3C(=O)N2c2ccc(Cl)cn2)CC1 (stereo not shown) [zopiclone]
change in vivo at 1 mg (test subject [2]; [7]): -44% | Suitability for reducing the oxygen consumption during physical work [1]: suitable

CN1CC[C@]23c4c5ccc(O)c4O[C@H]2[C@@H](O)C=C[C@H]3[C@H]1C5 [morphine]
Suitability for reducing the oxygen consumption during physical work [1]: suitable
